From patent publication US20240350441A1, “PHARMACEUTICAL FORMULATION AND A PROCESS FOR ITS PREPARATION” (SAVA HEALTHCARE LTD, priority 2021, published 2024)
Where a name gives a salt, the structure may show the parent alone. One block for each compound: values may come before it.

Assays:
[1] = Solubility/stability of injectable cinnamic acid 6 mg/mL in diluents (HPLC, ICH); format: physicochemical; details: zero day
Protocol: 6 mg of cinnamic acid was dissolved in 300 μl of 100% ethanol, sonicated for 5 min and then diluted to 1 ml with 5% PEG 400/5% DMSO/5% ethyl lactate to obtain a clear solution of cinnamic acid in the injectable form (injectable formulation). The formulation was evaluated for stability as per ICH guidelines.

[2] = tested on: Cyclophosphamide induced neutropenia; assay: Cyclophosphamide induced neutropenia, hematological parameters (Example 10); format: in vivo, Female Swiss Albino mice; details: for Anti-neutropenic activity (words): inference from table 8A
Protocol: (§1) • 1. To induce neutropenia by administration of cyclophosphamide. • 2.
(§2) Materials: Female Swiss Albino mice weighing between 25-27 g was procured from Global Bioresearch Solutions Pvt Ltd., Pune.
(§3) On day 0, blood was withdrawn from all animals for basal hematological parameters. All the groups of animals except placebo group were injected with 150 mg/kg of cyclophosphamide through intraperitoneal route (i.p.), while group 1 was injected with water for injection, i.p. On Day 3, blood was withdrawn from all animals for Total and differential count (neutrophils, lymphocytes, and monocytes). The animals of group 2 to 7 were dosed with one additional dose of 100 mg/kg cyclophosphamide on Day 4. […] The cyclophosphamide control group was injected with water for injection from day 5 to day 9. On day 10, blood was withdrawn from all animals for total and differential count (neutrophils, lymphocytes, and monocytes), platelets, liver parameters AST (aspartate aminotransferase), ALT (alanine aminotransferase), and renal parameters—serum creatinine, blood urea nitrogen and uric acid.
(§4) • Pure Picroside 1—1 tablet was dissolved in 0.1 ml of sterile water for injection and 0.1 ml was injected as subcutaneous injection. • The degraded Picroside 1 without salt (cinnamic acid of the present disclosure)—1 tablet was dissolved in 0.1 ml of sterile water for injection and 0.1 ml was injected as subcutaneous injection. • The Cinnamic acid low dose (0.6 mg/tablet) treated tablet was dissolved in 0.1 ml of sterile water for injection and 0.1 ml was injected as subcutaneous injection. • The Cinnamic acid high dose treated (6 mg/tablet) tablet was dissolved in 0.1 ml of sterile water for injection and 0.1 ml was injected as subcutaneous injection.

[3] = tested on: Cyclophosphamide induced hepatotoxicity and renal changes; assay: Hepatic and renal parameters in cyclophosphamide induced neutropenia (Example 10); format: in vivo, Female Swiss Albino mice; details: for BUN (blood urea nitrogen) / SGOT Serum glutamic oxaloacetic transaminase / SGPT (Serum glutamic pyruvic transaminase) / Serum Creatinine / Uric acid: day 10
Protocol: as §1, §2, §3, §4

neutropenia = assay: Efficacy dose for anti-neutropenic activity and human equivalent dose; format: in vivo, mice
Protocol: The animal efficacy dose of the cinnamic acid prepared in accordance with the present disclosure was 0.6 mg/mice or 0.6 mg/25 g or 6 mg/250 g or 24 mg/kg mice.
The human dose of the cinnamic acid prepared in accordance with the present disclosure, AED (animal equivalent dose) was divided by 12.3=24/12.3=1.95 mg/kg HED (human equivalent dose).
The animal efficacy dose of the cinnamic acid prepared in accordance with the present disclosure was 6 mg/25 g or 60 mg/250 g mice or 240 mg cinnamic acid/kg.
The human dose of the cinnamic acid prepared in accordance with the present disclosure, AED (animal equivalent dose) was divided by 12.3=240/12.3=19.51 mg/kg HED (human equivalent dose).

[4] = Day 0, basal, 0.6 mg/tablet low dose
[5] = Day 0, basal, 6 mg/tablet high dose
[6] = Day 3, after cyclophosphamide, before treatment, 0.6 mg/tablet low dose
[7] = Day 3, after cyclophosphamide, before treatment, 6 mg/tablet high dose
[8] = Day 10, treated day 5 for 5 days, 0.6 mg/tablet low dose, 1 tablet per animal per day
[9] = Day 10, treated day 5 for 5 days, 6 mg/tablet high dose, 1 tablet per animal per day
[10] = vs CP control, day 10, cinnamic acid at both 0.6 mg/tablet low dose and 6 mg/tablet high dose
[11] = 0.6 mg/tablet low dose, 1 tablet per animal per day for 5 days
[12] = 6 mg/tablet high dose, 1 tablet per animal per day for 5 days
[13] = vs CP control, cinnamic acid at both 0.6 mg/tablet low dose and 6 mg/tablet high dose
[14] = Day 0, basal, G-CSF 2 μg, Picroside tablets groups
[15] = Day 3, after cyclophosphamide, before treatment, G-CSF 2 μg, Picroside tablets groups
[16] = Day 10, treated day 5 for 5 days, G-CSF 2 μg s.c., others 1 tablet per animal per day
[17] = G-CSF 2 μg s.c., others 1 tablet per animal per day for 5 days

HPLC area ([1]; 30% Ethanol with 3.5% PEG400): 3128043
HPLC area ([1]; 30% Ethanol with 5% DMSO): 3276296
HPLC area ([1]; 30% Ethanol with 5% Ethyl lactate): 3175284
HPLC area ([1]; 100% Methanol): 3379040
Compound: O=C(O)C=Cc1ccccc1 [The commercial synthetic Cinnamic acid, 3-Phenyl-2-propenoic acid]
% Lymphocytes [2, 4]: 45.17%
% Monocytes [2, 4]: 6.66%
% Neutrophils [2, 4]: 40.33%
No of Platelets [2, 4]: 736600 per cu · mm of blood
Total WBC Count [2, 4]: 7465 per cu · mm of blood
% Lymphocytes [2, 5]: 46.83%
% Monocytes [2, 5]: 6.82%
% Neutrophils [2, 5]: 40.17%
No of Platelets [2, 5]: 772500 per cu · mm of blood
Total WBC Count [2, 5]: 7237 per cu · mm of blood
% Lymphocytes [2, 6]: 83.67%
% Monocytes [2, 6]: 1.82%
% Neutrophils [2, 6]: 6.50%
No of Platelets [2, 6]: 630500 per cu · mm of blood
Total WBC Count [2, 6]: 2289 per cu · mm of blood
% Lymphocytes [2, 7]: 84%
% Monocytes [2, 7]: 1.66%
% Neutrophils [2, 7]: 6.333%
No of Platelets [2, 7]: 637000 per cu · mm of blood
Total WBC Count [2, 7]: 2306 per cu · mm of blood
% Lymphocytes [2, 8]: 61%
% Monocytes [2, 8]: 5.82%
% Neutrophils [2, 8]: 27.67%
No of Platelets [2, 8]: 641400 per cu · mm of blood
Total WBC Count [2, 8]: 4460 per cu · mm of blood
% Lymphocytes [2, 9]: 53%
% Monocytes [2, 9]: 5.82%
% Neutrophils [2, 9]: 33.17%
No of Platelets [2, 9]: 660300 per cu · mm of blood
Total WBC Count [2, 9]: 5389 per cu · mm of blood
Anti-neutropenic activity (words) ([2]; listed as The commercial synthetic cinnamic acid): active to address neutropenia
Effect on % lymphocytes [2, 10]: significant (p<0.001) decrease in % lymphocytes
Effect on % monocytes [2, 10]: significantly (p<0.001) reversed
Effect on % neutrophil [2, 10]: significantly (p<0.001) alleviated the cyclophosphamide-induced neutropenia
Effect on platelet count [2, 10]: did not cause significant change in the platelet count
Effect on total WBC count [2, 10]: significantly (p<0.001) reversed the cyclophosphamide induced decrease in WBC count
BUN (blood urea nitrogen) [3, 11]: 9.533 mmol/L
SGOT Serum glutamic oxaloacetic transaminase [3, 11]: 33.67 IU/L
SGPT (Serum glutamic pyruvic transaminase) [3, 11]: 36.5 IU/L
Serum Creatinine [3, 11]: 38.5 µM
Uric acid [3, 11]: 16.82 mg/L
BUN (blood urea nitrogen) [3, 12]: 9.383 mmol/L
SGOT Serum glutamic oxaloacetic transaminase [3, 12]: 29.33 IU/L
SGPT (Serum glutamic pyruvic transaminase) [3, 12]: 32.17 IU/L
Serum Creatinine [3, 12]: 37.5 µM
Uric acid [3, 12]: 16.66 mg/L
Effect on BUN level [3, 13]: significant (p<0.001) decrease in BUN level
Effect on SGOT level [3, 13]: significant (p<0.001) decrease in SGOT
Effect on SGPT level [3, 13]: significant reversal (p<0.001)
Effect on serum creatinine level [3, 13]: significant (p<0.001) decrease in creatinine level
Effect on uric acid level [3, 13]: significant reversal (p<0.001) of uric acid level

Compound: O=C(O)C=Cc1ccccc1 [The degraded Picroside 1 without salt, cinnamic acid]
% Lymphocytes [2, 14]: 46.5%
% Monocytes [2, 14]: 6.50%
% Neutrophils [2, 14]: 38.83%
No of Platelets [2, 14]: 759400 per cu · mm of blood
Total WBC Count [2, 14]: 7644 per cu · mm of blood
% Lymphocytes [2, 15]: 83.5%
% Monocytes [2, 15]: 1.82%
% Neutrophils [2, 15]: 6.667%
No of Platelets [2, 15]: 624000 per cu · mm of blood
Total WBC Count [2, 15]: 2253 per cu · mm of blood
% Lymphocytes [2, 16]: 58.83%
% Monocytes [2, 16]: 5.50%
% Neutrophils [2, 16]: 25.17%
No of Platelets [2, 16]: 631900 per cu · mm of blood
Total WBC Count [2, 16]: 3705 per cu · mm of blood
Anti-neutropenic activity (words) ([2]; listed as the degraded Picroside 1 without salt): shows better anti-neutropenic activity
BUN (blood urea nitrogen) [3, 17]: 9.467 mmol/L
SGOT Serum glutamic oxaloacetic transaminase [3, 17]: 27.5 IU/L
SGPT (Serum glutamic pyruvic transaminase) [3, 17]: 30.33 IU/L
Serum Creatinine [3, 17]: 41 µM
Uric acid [3, 17]: 21.50 mg/L
Hepatic and renal parameters in neutropenic animal model ([3]; inference from table 8B, as compared to GCSF): improved hepatic and renal parameters
animal efficacy dose for anti-neutropenic activity (neutropenia; from 0.6 mg/mice (0.6 mg/25 g)): 24 mg/kg
animal efficacy dose (neutropenia; from 6 mg/25 g mice): 240 mg cinnamic acid/kg
